Assay results: EP2264011A1, “Heteroarylamidines and their use as fungicides” (Bayer CropScience AG, priority 2009, dated 2010)

What was measured:
[1] = test system: Blumeria graminis f·sp. hordei; assay: Blumeria graminis test (barley) / protective; assay type: in vivo; details: 1000 ppm active ingredient, evaluated 7 days after inoculation
Excerpt: (§1) Zur Herstellung einer zweckmäßigen Wirkstoffzubereitung vermischt man 1 Gewichtsteil Wirkstoff mit den angegebenen Mengen Lösungsmittel und Emulgator und verdünnt das Konzentrat mit Wasser auf die gewünschte Konzentration.
Zur Prüfung auf protektive Wirksamkeit besprüht man junge Pflanzen mit der Wirkstoffzubereitung in der angegebenen Aufwandmenge.
Nach Antrocknen des Spritzbelages werden die Pflanzen mit Sporen von Blumeria graminis f·sp. hordei bestäubt.
Die Pflanzen werden in einem Gewächshaus bei einer Temperatur von ca. 18°C und einer relativen Luftfeuchtigkeit von ca. 80 % aufgestellt, um die Entwicklung von Mehltaupusteln zu begünstigen.
7 Tage nach der Inokulation erfolgt die Auswertung. Dabei bedeutet 0 % ein Wirkungsgrad, der demjenigen der Kontrolle entspricht, während ein Wirkungsgrad von 100 % bedeutet, dass kein Befall beobachtet wird.

Venturia inaequalis = assay: Venturia test (apple) / protective; assay type: in vivo; details: 100ppm active ingredient, evaluated 10 days after inoculation
Excerpt: as §1
Zur Prüfung auf protektive Wirksamkeit werden junge Pflanzen mit der Wirkstoffzubereitung in der angegebenen Aufwandmenge besprüht. Nach Antrocknen des Spritzbelages werden die Pflanzen mit einer wäßrigen Konidiensuspension des Apfelschorferregers Venturia inaequalis inokuliert und verbleiben dann 1 Tag bei ca. 20°C und 100% relativer Luftfeuchtigkeit in einer Inkubations-kabine.
Die Pflanzen werden dann im Gewächshaus bei ca. 21°C und einer relativen Luftfeuchtigkeit von ca. 90% aufgestellt.
10 Tage nach der Inokulation erfolgt die Auswertung. Dabei bedeutet 0% ein Wirkungsgrad, der demjenigen der Kontrolle entspricht, während ein Wirkungsgrad von 100% bedeutet, daß kein Befall beobachtet wird.

ECHCG = assay: Herbicidal action, test type PE; assay type: in vivo; details: Test-Typ PE, 320 G/HA
Excerpt: (§2) Die herbizide Wirkung der Verbindungen der allgemeinen Formel (I) wird in den nachfolgenden Tabellen näher erläutert.

AMARE [2] = assay: Herbicidal action, test type PE; assay type: in vivo; details: Test-Typ PE, 320 G/HA
Excerpt: as §2

VERPE [3] = assay: Herbicidal action, test type PE; assay type: in vivo; details: Test-Typ PE, 320 G/HA
Excerpt: as §2

DIGSA = assay: Herbicidal action, test type PE; assay type: in vivo; details: Test-Typ PE, 320 G/HA
Excerpt: as §2

SETVI [4] = assay: Herbicidal action, test type PE; assay type: in vivo; details: Test-Typ PE, 320 G/HA
Excerpt: as §2

PHBPU = assay: Herbicidal action, test type PO; assay type: in vivo; details: TEST-TYP PO, 80 G/HA
Excerpt: as §2

VERPE [5] = assay: Herbicidal action, test type PO; assay type: in vivo; details: TEST-TYP PO, 80 G/HA
Excerpt: as §2

Botrytis cinerea = assay: Botrytis test (cucumber) / protective; assay type: in vivo; details: 500ppm active ingredient, evaluated 5-6 days after inoculation
Procedure: as §1
Zur Prüfung auf protektive Wirksamkeit bespritzt man junge Gurkenpflanzen mit der Wirkstoffzubereitung in der angegebenen Aufwandmenge. 1 Tag nach der Behandlung werden die Pflanzen mit einer Sporensuspension von Botrytis cinerea inokuliert und stehen dann 48h bei 100% rel. Feuchte und 22°C. Anschließend stehen die Pflanzen bei 96% rel. Luftfeuchtigkeit und einer Temperatur von 14°C.
5-6 Tage nach der Inokulation erfolgt die Auswertung. Dabei bedeutet 0 % ein Wirkungsgrad, der demjenigen der Kontrolle entspricht, während ein Wirkungsgrad von 100 % bedeutet, dass kein Befall beobachtet wird.

Myzus persicae [6] = assay: Myzus test (MYZUPE spray treatment); assay type: in vivo; details: 500 g/ha; spray on Chinese cabbage leaf discs (Brassica pekinensis); 100 % = all aphids killed
Excerpt: (§3) Zur Herstellung einer zweckmäßigen Wirkstoffzubereitung vermischt man 1 Gewichtsteil Wirkstoff mit den angegebenen Mengen Lösungsmittel und Emulgator und verdünnt das Konzentrat mit emulgatorhaltigem Wasser auf die gewünschte Konzentration.
Chinakohlblattscheiben (Brassica pekinensis), die von allen Stadien der Grünen Pfirsichblattlaus (Myzus persicae) befallen sind, werden mit einer Wirkstoffzubereitung der gewünschten Konzentration gespritzt.
(§4) Nach der gewünschten Zeit wird die Wirkung in % bestimmt. Dabei bedeutet 100 %, dass alle Blattläuse abgetötet wurden; 0 % bedeutet, dass keine Blattläuse abgetötet wurden.

Myzus persicae [7] = assay: Myzus test; oral (MYZUPE); assay type: in vivo; details: 100 g/ha; oral uptake by sucking; 100 % = all aphids killed
Excerpt: Zur Herstellung einer zweckmäßigen Wirkstoffzubereitung vermischt man 1 Gewichtsteil Wirkstoff mit den angegebenen Mengen Lösungsmittel und verdünnt das Konzentrat mit Wasser auf die gewünschte Konzentration.
Gefäße werden mit allen Stadien der Grünen Pfirsichblattlaus (Myzus persicae) besetzt, durch saugen an der Wirkstoffzubereitung der gewünschten Konzentration wird behandelt.
as §4

Meloidogyne incognita = assay: Meloidogyne test (MELGIN); assay type: in vivo; details: 20 ppm; sand with lettuce seeds; 100 % = no galls
Excerpt: as §1
Gefäße werden mit Sand, Wirkstofflösung, Meloidogyne incognita-Ei-Larvensuspension und Salatsamen gefüllt. Die Salatsamen keimen und die Pflänzchen entwickeln sich. An den Wurzeln entwickeln sich die Gallen.
Nach der gewünschten Zeit wird die nematizide Wirkung an Hand der Gallenbildung in % bestimmt. Dabei bedeutet 100 %, dass keine Gallen gefunden wurden; 0 % bedeutet, dass die Zahl der Gallen an den behandelten Pflanzen der der unbehandelten Kontrolle entspricht.

VIOTR = assay: Herbicidal action, test type PE; assay type: in vivo; details: Test-Typ PE, 320 G/HA
Excerpt: as §2

AMARE [8] = assay: Herbicidal action, test type PO; assay type: in vivo; details: TEST-TYP PO, 80 G/HA
Excerpt: as §2

SETVI [9] = assay: Herbicidal action, test type PO; assay type: in vivo; details: TEST-TYP PO, 80 G/HA
Excerpt: as §2

Tetranychus urticae = assay: Tetranychus test, OP-resistant (TETRUR spray treatment); assay type: in vivo; details: 500 g/ha; spray on bean leaf discs (Phaseolus vulgaris); 100 % = all spider mites killed
Excerpt: as §3
Bohnenblattscheiben (Phaseolus vulgaris), die von allen Stadien der Gemeinen Spinnmilbe (Tetranychus urticae) befallen sind, werden mit einer Wirkstoffzubereitung der gewünschten Konzentration gespritzt.
Nach der gewünschten Zeit wird die Wirkung in % bestimmt. Dabei bedeutet 100 %, dass alle Spinnmilben abgetötet wurden; 0 % bedeutet, dass keine Spinnmilben abgetötet wurden.

physchem = details: pH 2.3
Excerpt: Die Bestimmung erfolgt im sauren Bereich bei pH 2.3 mit 0,1% wässriger Phosphorsäure und Acetonitril als Eluenten linearer Gradient von 10% Acetonitril bis 95% Acetonitril.

Structure (SMILES): CCN(C)C=Nc1cnc(-c2ccc(Cl)c(C(F)(F)F)c2)cc1C [Beispiel 15]
- Wirkungsgrad [1]: ≥ 70%
- Wirkungsgrad (Venturia inaequalis): ≥ 70%
- herbizide Wirkung ECHCG (ECHCG): 90
- herbizide Wirkung AMARE (AMARE [2]): 90
- herbizide Wirkung VERPE (VERPE [3]): 90
- herbizide Wirkung DIGSA (DIGSA): 100
- herbizide Wirkung SETVI (SETVI [4]): 100
- herbizide Wirkung PHBPU (PHBPU): 90
- herbizide Wirkung VERPE (VERPE [5]): 80
- Wirkungsgrad (Botrytis cinerea): ≥ 70%

Structure (SMILES): CCN(C)C=Nc1cnc(-c2cccnc2)cc1C [Beispiel 95]
- Wirkung (Myzus persicae [6]): ≥ 80%
- Wirkung (Myzus persicae [7]): ≥ 80%

Structure (SMILES): Cc1cc(-c2ccc(C(F)(F)F)cc2)ncc1N=CN(C)C [Beispiel 100]
- nematizide Wirkung an Hand der Gallenbildung (Meloidogyne incognita): ≥ 80%

Structure (SMILES): Cc1cc(-c2ccc(C(F)(F)F)c(Cl)c2)ncc1N=CN(C)C [Beispiel 105]
- nematizide Wirkung an Hand der Gallenbildung (Meloidogyne incognita): ≥ 80%
- herbizide Wirkung ECHCG (ECHCG): 80
- herbizide Wirkung VIOTR (VIOTR): 90
- herbizide Wirkung VERPE (VERPE [3]): 100
- herbizide Wirkung SETVI (SETVI [4]): 80
- herbizide Wirkung AMARE (AMARE [8]): 80
- herbizide Wirkung VERPE (VERPE [5]): 80
- herbizide Wirkung SETVI (SETVI [9]): 80
- Wirkung (Tetranychus urticae): ≥ 80%

Structure (SMILES): CCN(C=Nc1cnc(-c2ccc(Cl)c(C(F)(F)F)c2)cc1C)CC [Beispiel 119]
- herbizide Wirkung AMARE (AMARE [2]): 80
- herbizide Wirkung SETVI (SETVI [4]): 100
- chromatographic logP (physchem): 1.92

Structure (SMILES): Cc1cc(Cl)ncc1N=CN(C)C [Beispiel 131]
- Wirkungsgrad (Botrytis cinerea): ≥ 70%

Structure (SMILES): CCN(C)C=Nc1cnc(-c2ccc(C(C)(C)C)cc2)cc1C [Beispiel 142]
- Wirkungsgrad [1]: ≥ 70%
- Wirkungsgrad (Botrytis cinerea): ≥ 70%

Structure (SMILES): Cc1cc(-c2ccc(C(C)(C)C)cc2)ncc1N=CN1CCCCC1 [Beispiel 150]
- Wirkungsgrad (Venturia inaequalis): ≥ 70%
- Wirkungsgrad (Botrytis cinerea): ≥ 70%

Structure (SMILES): Cc1cc(-c2cc(C(F)(F)F)cc(C(F)(F)F)c2)ncc1N=CN(C)C [Beispiel 172]
- Wirkung (Myzus persicae [7]): ≥ 80%

Structure (SMILES): CCN(C)C=Nc1cnc(-c2ccc(C3CCCCC3)cc2)cc1C [Beispiel 209]
- Wirkungsgrad (Venturia inaequalis): ≥ 70%
- Wirkungsgrad (Botrytis cinerea): ≥ 70%

Structure (SMILES): Cc1cc(-c2ccc(F)nc2)ncc1N=CN(C)C [Beispiel 234]
- nematizide Wirkung an Hand der Gallenbildung (Meloidogyne incognita): ≥ 80%
- Wirkung (Myzus persicae [6]): ≥ 80%
- Wirkung (Myzus persicae [7]): ≥ 80%

Structure (SMILES): CCN(C)C=Nc1cnc(-c2ccc(OC(F)(F)F)c(F)c2)cc1C [Beispiel 247]
- nematizide Wirkung an Hand der Gallenbildung (Meloidogyne incognita): ≥ 80%
- Wirkung (Myzus persicae [7]): ≥ 80%

Structure (SMILES): Cc1cc(-c2cccnc2)ncc1N=CN(C)C [Beispiel 270]
- Wirkung (Myzus persicae [6]): ≥ 80%
- Wirkung (Myzus persicae [7]): ≥ 80%

Structure (SMILES): Cc1cc(-c2ccc(OC(F)(F)F)cc2)ncc1N=CN(C)C [compound 113]
- chromatographic logP (physchem): 1.25

Structure (SMILES): CCN(C)C=Nc1cnc(-c2ccc(OC(F)(F)F)cc2)cc1C [compound 114]
- chromatographic logP (physchem): 1.34

Structure (SMILES): Cc1cc(-c2ccc([Si](C)(C)C)cc2)ncc1N=CN(C)C [compound 115]
- chromatographic logP (physchem): 1.51

Structure (SMILES): CCN(C)C=Nc1cnc(-c2ccc([Si](C)(C)C)cc2)cc1C [compound 116]
- chromatographic logP (physchem): 1.6

Structure (SMILES): Cc1cc(-c2ccc(Cl)c(C(F)(F)F)c2)ncc1N=CN1CCCC1 [compound 117]
- chromatographic logP (physchem): 1.75

Structure (SMILES): CCCCN(C=Nc1cnc(-c2ccc(Cl)c(C(F)(F)F)c2)cc1C)CCCC [compound 118]
- chromatographic logP (physchem): 2.49

Structure (SMILES): Cc1cc(-c2ccc(Cl)c(C(F)(F)F)c2)ncc1N=CN(C(C)C)C(C)C [compound 120]
- chromatographic logP (physchem): 2.23

Structure (SMILES): Cc1cc(-c2ccc(F)c(C(F)(F)F)c2)ncc1N=CN1CCCC1 [compound 121]
- chromatographic logP (physchem): 1.85

Structure (SMILES): Cc1cc(-c2ccc(F)c(C(F)(F)F)c2)ncc1N=CN(C(C)C)C(C)C [compound 122]
- chromatographic logP (physchem): 1.9

Structure (SMILES): CC(=Nc1cnc(-c2ccc(Cl)c(C(F)(F)F)c2)cc1C)N(C)C [compound 123]
- chromatographic logP (physchem): 1.03

Structure (SMILES): CC(=Nc1cnc(-c2ccc(Cl)c(C(F)(F)F)c2)cc1C)N1CCCCC1 [compound 124]
- chromatographic logP (physchem): 0.94
